The values below come from publication PMC12081870 (Communications Biology, 2025).

One experiment concerns the target Sla1 third SH3 domain. Also on record: method as in PMID 17244534. The settings on record: third SH3 domain of Sla1; ref [10]; read-out: binding to ubiquitin affinity; cited from earlier work.
The test system of experiment [1] is Las17-GFP and Arc15-mCherry. Put plainly: Dual-reporter lifetimes, Las17-GFP and Arc15-mCherry co-localisation. Format: cell-based, Saccharomyces cerevisiae. Also noted: lifetime, GFP alone / lifetime, GFP and RFP / lifetime, RFP: unit not given here. As for the experimental part:
A size bar for each set of kymographs is shown on the upper right of each set. For (A) and (C) size bar is 100 nm and for B is 200 nm. Error bars are standard deviation. […] The site of interest is labelled in the first two time panels with a white arrow. Exposure 0.5 sec with 1 second time lapse. 120 s recorded. […] Error bars are standard deviation.
Individual spots were analysed for lifetimes and behaviours.
Yeast strains used in this study are listed in Supplementary table 2 and plasmids used in Supplementary table 1. Unless stated otherwise, cells were grown with rotary shaking at 30 °C in liquid YPD medium (1% yeast extract, 2% Bacto-peptone, 2% glucose supplemented with 40 μg/ml adenine) or in synthetic medium (0.67% yeast nitrogen base, 2% glucose) with appropriate supplements. […] DNA cassettes carrying mutations for integration were transformed into KAY1801. Mutant colonies were counter-selected on minimal medium, containing 0.005% uracil and 0.1% 5’-Fluoroorotic Acid (5-FOA; Melford laboratories). Allele exchange, in growing Ura3^-, 5-FOA resistant colonies, was confirmed by PCR and sequencing.
For live-cell imaging, cells expressing tagged proteins were visualised after growing to early log phase. Analysis was carried out at room temperature (22 °C). […] Images were taken simultaneously on separate scientific complementary metal oxide semiconductor (sCMOS) cameras (30 msec exposure). Seven 250 nm sections were acquired every 0.5 sec (241 time points). The stacks were then deconvolved and processed, using SoftWorx. Protein localisation and lifetime was analysed from those projections. Fiji software was used to assemble movies and kymographs, to track and record behaviour of individual spots. Graphs show mean ± SD. […] Where appropriate data was tested for normal distribution using Graphpad Prism software, and then subjected to the appropriate test as described in the methods for each experiment type.

The test system of experiment [2] is Las17 and las17 P387A expressing yeast strains. Put plainly: Latrunculin-A halo assay on yeast. In kind it is cell-based, Saccharomyces cerevisiae. The settings on record: sole Las17 in cells, words. On the procedure: (§1) Supplementary Information.
(§2) Methods used in Supplementary Data
(§3) Yeast strains, growth and staining
(§4) Yeast plasmids used in this study are listed in Supplementary table 1 and yeast strains used in Supplementary table 2. Unless stated otherwise, cells were grown with rotary shaking at 30°C in liquid YPD medium (1% yeast extract, 2% Bacto-peptone, 2% glucose supplemented with 40 μg/ml adenine) or in synthetic medium (0.67% yeast nitrogen base, 2% glucose) with appropriate supplements. Growth assays used solid medium with 2% agar added to above. All strains carrying fluorescent tags have growth properties similar to isogenic control strains with the exception of strains carrying dual reporters where lifetimes were longer for both wild type and mutant strains (in Figure 9D). Point mutations in LAS17 were generated using site directed mutagenesis (Agilent). DNA cassettes carrying mutations for integration were transformed into KAY1801. Mutant colonies were counter-selected on minimal medium, containing 0.005% uracil and 0.1% 5’-Fluoroorotic Acid (5-FOA; Melford labs). […]
(§5) expressing strains on plates on which a disc carrying 10 µl of latrunculin-A of varying concentrations was placed (white disc). […] They were then scored according to the extent of uptake and categorised according to the key shown. >100 cells were visualised for each strain in each of 3 independent experiments. […]

In experiment [3] the test system is Arc15-mCherry (Arp2/3 complex). The experiment in a line: Lifetime of Arc15-mCherry patches at endocytic sites. Format: cell-based, Saccharomyces cerevisiae. To be noted: las17 P387A background vs wild type; wt n = 156, P387A n = 132. As for the experimental part:
(§6) For live-cell imaging, cells expressing tagged proteins were visualised after growing to early log phase. Analysis was carried out at room temperature (22 °C). Time-lapse of wild-type and mutated Las17-GFP was acquired using OMX DeltaVision V4 and a 60×/1.42 NA objective. Images were taken simultaneously on separate scientific complementary metal oxide semiconductor (sCMOS) cameras (30 msec exposure). Seven 250 nm sections were acquired every 0.5 sec (241 time points). The stacks were then deconvolved and processed, using SoftWorx. Protein localisation and lifetime was analysed from those projections. Fiji software was used to assemble movies and kymographs, to track and record behaviour of individual spots. Graphs show mean ± SD. Sample size Fig. 9A wt n = 67, P387A n = 52; 9B wt n = 183, P387A n = 96; 9 C wt n = 156, P387A n = 132. Where appropriate data was tested for normal distribution using Graphpad Prism software, and then subjected to the appropriate test as described in the methods for each experiment type.
(§7) Lifetime and behaviour of cell reporter proteins using fluorescence microscopy: Graphs show mean ± SD. Sample size Fig. 9A wt n = 67, P387A n = 52; 9B wt n = 183, P387A n = 96; 9 C wt n = 156, P387A n = 132. Unpaired Mann Whitney statistical analysis of patch lifetimes was carried out using Graphpad Prism software, **** denotes two tailed P value of <0.0001.

The subject of another experiment is Abp1. The experiment in a line: Lifetime of Abp1-GFP patches at endocytic sites. In kind it is cell-based, Saccharomyces cerevisiae. To be noted: las17 P387A background vs wild type; wt n = 183, P387A n = 96. On the procedure:
as §6, §7

In a further experiment the test system is yeast cells. The experiment in a line: Lucifer yellow bulk phase endocytosis. Format: cell-based, Saccharomyces cerevisiae. The settings on record: 90 minutes at 30°C, vs wild type. As for the experimental part: as §1, §2, §3, §4, §5
For experiment [4], the system named is F-actin organisation in yeast cells. The experiment in a line: Rhodamine-phalloidin staining, actin organisation in cells. Format: cell-based, Saccharomyces cerevisiae. To be noted: vs wild type cells. On the procedure: as §1, §2, §3, §4, §5
Another experiment relates to las17 P387A yeast strain. Put plainly: Growth of yeast, temperature sensitivity. To be noted: range of temperatures, sole Las17 in cells. Format: cell-based, Saccharomyces cerevisiae. As for the experimental part:
as §1, §2, §3, §4, §5

Setting [5] is: Las17-GFP / Arc15-mCherry dual-label strain.
Where [6] appears, read: sheet Fig9E, individual endocytic patches, one per cell.

pKd: −log10 of the molar value. Where “and” joins values, the source holds several entries; their conditions need not be identical. Identical values can stand only once.

On to ubiquitin, for which, on Sla1 third SH3 domain, the pKd is 4.41.
On to “las17 P387A: full-length Las17 with P387A, integrated in yeast in place of wild type LAS17”, for which, in experiment [1] (setting [5]), the “duration of co-localization of Las17-GFP and Arc15-mCherry” value was determined as 28 s; the “time of Arc15-mCherry alone after Las17 disassembly” value amounted to 15 s; the “time of Las17 at the site before Arc15 is recruited” value is reported as “about 40 s”. Besides, in experiment [1] (setting [6]), the “lifetime, GFP alone” value is 30 and 22 and 44 and 66; the “lifetime, GFP and RFP” value was 46 and 78 and 88; the “lifetime, RFP” value was 62 and 92 and 108. The “sensitivity to latrunculin-A” value in experiment [2] is on record as “increase in sensitivity to latrunculin-A”. Also, in experiment [3], the “lifetime of Arc15 patches” value is given as “increased lifetime”. Besides, the “lifetime of Abp1 patches” value in the experiment on Abp1 is “increased lifetime”. Further, the bulk phase endocytosis entry in the experiment on yeast cells is on record as “slower than in wild type cells”. Moreover, the “actin organisation in cells” value in experiment [4] is “less well polarised”. In addition, the growth result in the experiment on las17 P387A yeast strain is “able to support growth across a range of temperatures”.
